The values that follow come from patent US8017612B2, “Piperazine compound and use thereof as a HCV polymerase inhibitor” (priority 2006, dated 2011).

Structures can show the parent of a compound that is named as a salt.

The target of assay [1] is T1, HCV polymerase (NS5B) type 1b (Hepatitis C virus genotype 1b, UniProt P26663).
T1 construct: a region encoding NS5B (J Virol 1991 March, 65(3), 1105-13, 544 amino acids after deletion of 47 amino acids on the C-terminal); 6xHis (C); made in house; host or cells: Escherichia coli
Briefly: Assay of enzyme (HCV polymerase) inhibitory activity, type 1b enzyme. Format: biochemical, HCV BK strain (type 1b). The settings on record: HCV polymerase inhibitory activity (IC50), 1b, type 1b enzyme 0.5 μg/ml, 25° C., 60 min. Summed up:
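His-tagged, C-terminally truncated NS5B (BK strain, 1b; 0.5 μg/ml) incubated with compound 60 min at 25 °C on 3′UTR-derived substrate RNA (5 μg/ml), 50 μM ATP/GTP/CTP, 2 μM UTP plus [3H]UTP, pH 7.5. Acid-precipitated RNA counted; IC50 from radioactivity with and without compound.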

For assay [2], the target named is T2, HCV polymerase (NS5B) type 1a (Hepatitis C virus genotype 1a, UniProt P26664).
T2 construct: made in house; host or cells: Escherichia coli (by the 'similar method' of the 1b enzyme)
The experiment in a line: Assay of enzyme (HCV polymerase) inhibitory activity, type 1a enzyme. It is filed as biochemical, HCV type 1a (cloned from the blood of patients). The settings on record: HCV polymerase inhibitory activity (IC50), 1a, type 1a enzyme 1.5 μg/ml, 25° C., 60 min. The method in brief: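 His-tagged NS5B, C-terminal 47 residues deleted, type 1a at 1.5 μg/ml, with 5 μg/ml HCV 3′UTR substrate RNA, 50 μM ATP/GTP/CTP, 2 μM UTP plus [3H]UTP, pH 7.5 Tris, 5 mM MgCl2; 60 min at 25° C. TCA-precipitated RNA counted by scintillation; IC50 from radioactivity with vs. without compound.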

One may read the IC50 as the concentration needed to halve the response being measured. Higher therefore signals a need for much substance.

Turning to `CN(C)c1ccc(CNC(=O)C2CN(C(=O)OC(C)(C)C)CCN2S(=O)(=O)c2ccc(I)cc2)cc1` (stereo not shown) [Example 82, 3-(4-dimethylamino-benzylcarbamoyl)-4-(4-iodo-benzenesulfonyl)-piperazine-1-carboxylic acid tert-butyl ester], the IC50 in assay [1] and in assay [2] was above 1000 nM in each case.

On to `CC(=O)N1CCN(S(=O)(=O)c2ccc(OC(C)C)cc2)C(C(=O)NCc2ccc(C(F)(F)F)cc2)C1` (stereo not shown) [Example 83, 4-acetyl-1-(4-isopropoxy-benzenesulfonyl)-piperazine-2-carboxylic acid 4-trifluoromethyl-benzylamide], for which the IC50 in assay [1] and in assay [2] was above 1000 nM each time.

In the case of `CN(C)c1ccc(CNC(=O)C2CNCCN2S(=O)(=O)c2ccc(I)cc2)cc1` (stereo not shown) [Example 84, 1-(4-iodo-benzenesulfonyl)-piperazine-2-carboxylic acid 4-dimethylamino-benzylamide hydrochloride], the IC50 in assay [1] and in assay [2] was above 1000 nM throughout.

As for `CC(=O)N1CCN(S(=O)(=O)c2ccc(I)cc2)C(C(=O)NCc2ccc(N(C)C)cc2)C1` (stereo not shown) [Example 85, 4-acetyl-1-(4-iodo-benzenesulfonyl)-piperazine-2-carboxylic acid 4-dimethylamino-benzylamide], the IC50 in assay [1] is above 1000 nM; in assay [2] it was 100 to 1000 nM.

As to `CN(C)c1ccc(CNC(=O)C2CN(C(=O)CNC(=O)OC(C)(C)C)CCN2S(=O)(=O)c2ccc(I)cc2)cc1` (stereo not shown) [Example 86, {2-[3-(4-dimethylamino-benzylcarbamoyl)-4-(4-iodo-benzenesulfonyl)-piperazin-1-yl]-2-oxo-ethyl}-carbamic acid tert-butyl ester], the IC50 in assay [1] and in assay [2] was above 1000 nM in each case.

`CN(C)c1ccc(CNC(=O)C2CN(C(=O)CCNC(=O)OC(C)(C)C)CCN2S(=O)(=O)c2ccc(I)cc2)cc1` (stereo not shown) [Example 87, {3-[3-(4-dimethylamino-benzylcarbamoyl)-4-(4-iodo-benzenesulfonyl)-piperazin-1-yl]-3-oxo-propyl}-carbamic acid tert-butyl ester]: the IC50 in assay [1] and in assay [2] was above 1000 nM throughout.

Turning to `CN(C)c1ccc(CNC(=O)C2CN(C(=O)CN)CCN2S(=O)(=O)c2ccc(I)cc2)cc1` (stereo not shown) [Example 88, 4-(2-amino-acetyl)-1-(4-iodo-benzenesulfonyl)-piperazine-2-carboxylic acid 4-dimethylamino-benzylamide hydrochloride], the IC50 in assay [1] and in assay [2] was above 1000 nM throughout.

For `CN(C)c1ccc(CNC(=O)C2CN(C(=O)CCN)CCN2S(=O)(=O)c2ccc(I)cc2)cc1` (stereo not shown) [Example 89, 4-(3-amino-propionyl)-1-(4-iodo-benzenesulfonyl)-piperazine-2-carboxylic acid 4-dimethylamino-benzylamide hydrochloride], the IC50 in assay [1] and in assay [2] was above 1000 nM in each case.

On to `CC(=O)N1CCN(S(=O)(=O)c2ccc(C(C)C)cc2)C(C(=O)NCc2ccc(N)cc2)C1` (stereo not shown) [Example 90, 4-acetyl-1-(4-isopropyl-benzenesulfonyl)-piperazine-2-carboxylic acid 4-amino-benzylamide], for which the IC50 in assay [1] and in assay [2] was above 1000 nM each time.

Take `CCCCc1ccc(S(=O)(=O)N2CCN(C(C)=O)CC2C(=O)NCc2ccc(C(F)(F)F)cc2)cc1` (stereo not shown) [Example 91, 4-acetyl-1-(4-butyl-benzenesulfonyl)-piperazine-2-carboxylic acid 4-trifluoromethyl-benzylamide]: the IC50 in assay [1] and in assay [2] was above 1000 nM in each case.

`CC(=O)N1CCN(S(=O)(=O)c2ccc(N(C)C)cc2)C(C(=O)NCc2ccc(C(F)(F)F)cc2)C1` (stereo not shown) [Example 92, 4-acetyl-1-(4-dimethylamino-benzenesulfonyl)-piperazine-2-carboxylic acid 4-trifluoromethyl-benzylamide]: the IC50 in assay [1] and in assay [2] was above 1000 nM in each case.
